Measured values published in patent US7678884B2, “Biologically active peptide and agent containing the same” (Seikagaku Corporation, priority 2003, dated 2010).
Ends that are not written are not given here.

Columns and labels:
[1] = test system: Human-derived Periodontal Ligament Cells (PDL Cells); experiment: Cell growth of PDL cells (cell number by Coulter counter); assay type: cell-based; conditions: peptide added at various concentrations to DMEM containing 2% FBS; counted on Days 4 and 6; versus control medium (FIG. 1, FIG. 2)
From the text: PDL cells were isolated from a healthy premolar carefully extracted from a patient who visited a hospital to extract teeth for orthodontic treatment so that periodontal ligament should not be damaged as far as possible, and cultured. The extracted tooth was washed with sterilized physiological saline and phosphate-buffered saline (PBS, Nissui), and then periodontal ligament existing in ⅓ of the tooth root at the center was scraped off with a sharp knife. The pieces of periodontal ligament were transferred to a plastic plate and minced into small fragments using a round-blade knife. Tissue fragments were left standing in a plate having a diameter of 35 mm (FALCON) and cultured in Dulbecco's modified Eagle medium (DMEM, Nissui) containing antibiotics (100 U/ml of penicillin G, 100 μg/ml of streptomycin and 250 μg/ml of gentamicin) and 10% fetal bovine serum (FBS, EQUITECH-BIO) at 37° C. under 5% CO2. […]
The PDL cells prepared in (1) were inoculated on a 24-well culture plate (FALCON) at a ratio of 5×10^3 cells/well. […] On Days 4 and 6, the cells were separated and dispersed by using PBS containing 0.08% trypsin and 0.04% ethylenediaminetetraacetic acid (EDTA), and cell number was counted by using a Coulter counter (COULTER Z1, Coulter Electronics). […]

PDL cells [2] = experiment: Cell differentiation of PDL cells (alkaline phosphatase activity, Bessey-Lowry method); assay type: cell-based, human; conditions: peptide at various concentrations, 2% FBS medium; one week after confluent state; versus control (FIG. 4)
From the text: PDL cells were isolated from a healthy premolar carefully extracted from a patient who visited a hospital to extract teeth for orthodontic treatment so that periodontal ligament should not be damaged as far as possible, and cultured. The extracted tooth was washed with sterilized physiological saline and phosphate-buffered saline (PBS, Nissui), and then periodontal ligament existing in ⅓ of the tooth root at the center was scraped off with a sharp knife. The pieces of periodontal ligament were transferred to a plastic plate and minced into small fragments using a round-blade knife. Tissue fragments were left standing in a plate having a diameter of 35 mm (FALCON) and cultured in Dulbecco's modified Eagle medium (DMEM, Nissui) containing antibiotics (100 U/ml of penicillin G, 100 μg/ml of streptomycin and 250 μg/ml of gentamicin) and 10% fetal bovine serum (FBS, EQUITECH-BIO) at 37° C. under 5% CO2. Then, cells released from the periodontal ligament tissue fragments were subcultured under the same conditions, and the 3rd to 5th generation cells were used for experiments. • (ii) Mouse-derived Osteoblasts
As an index of cell differentiation, alkaline phosphatase (ALP) activity of cells was determined. Cells were inoculated in a 24-well culture plate at a ratio of 5×10^3 cells/well, added with the peptide (a) at various concentrations and cultured in DMEM or αMEM containing 2% FBS. One week after the time point when the cells reached a confluent state, ALP activity was determined by the following enzymochemical method (Bessey-Lowry method, Bessey O A, Lowry O H and Brock M J, A method for the rapid determination of alkaline phosphatase with five cubic millimeter of serum, J. Biol. Chem., 164:321-329, 1946).
The cultured cells were washed with PBS and then disrupted in 10 mM Tris-HCl buffer (pH 7.4, 500 μl) for 40 seconds by using an ultrasonic homogenizer (Handy Sonic model UR-20P, Tomy Seiko) and stirred. Then, 25 μl of this sample liquid was added to 125 μl of ALP buffer (0.1 M carbonate buffer, pH 9.8, 6.7 mM p-nitrophenyl phosphate, 2 mM MgCl2) and incubated at 37° C. for 30 minutes. The reaction was terminated by addition of 125 μl of 0.2 N NaOH, and absorbance was measured at 405 nm by using a microplate reader (Model 550, Bio-Rad Laboratories).
Further, the ALP activity in DMEM containing 2% FBS and DMEM or αMEM containing 2% FBS added with peptide (c) at various concentrations was also similarly examined. The symbol “cont” in FIG. 4 indicates the results for the cells cultured in DMEM containing 2% FBS alone, “PN” indicates the results for the cells cultured in the medium added only with the peptide (a), and “PC” indicates the results for the cells cultured in the medium added only with the peptide (c). In FIG. 4, “pg” and “ng” represent “pg/ml” and “ng/ml,” respectively.
Further, in addition to the peptide (a) (derived from swine), the human-derived peptide (b) and BMP were similarly examined. The results of ALP activity measurement performed when the cells reached a confluent state are shown in FIG. 5, and the results of ALP activity measurement performed one week after the confluent state was attained are shown in FIG. 6. The symbol “cont” in the figures indicates the results for the cells cultured in DMEM containing 2% FBS alone, “B” indicates the results for the cells cultured in the medium added only with BMP2, “PN” indicates the results for the cells cultured in the medium added only with the peptide (a), and “HN” indicates the results for the cells cultured in the medium added only with the peptide (b) In the figures, the unit of numerical values shown after “B,” “PN” and “HN” is “ng/ml.”

PDL cells [3] = experiment: Calcification product forming ability of PDL cells (Dahl's calcium staining, alizarin red S); assay type: cell-based, human; conditions: peptide at various concentrations, 10 mM sodium β-glycerophosphate, three weeks after confluent state
Method: The following experiment was performed to examine effect of the peptide on calcification product forming ability of cells.
To assess calcification ability of cells, Dahl's calcium staining was performed. The PDL cells were inoculated on a 24-well culture plate at a ratio of 5×10^3 cells/well, and cultured in 2S-containing DMEM added with the peptide (a) or (c) at various concentrations and adjusted by addition of 10 mM sodium β-glycerophosphate. Three weeks after the cells reached a confluent state, the cells were washed with PBS, fixed with neutrally buffered formalin and stained with alizarin red S (Wako Pure Chemical Industries).

NKAQQPQIKRDAWRF [(c)]
significantly increased: PDL cell number (cell growth promoting effect) [1] | ALP activity of the PDL cells (PDL cells [2]) | calcification ability of the PDL cells (PDL cells [3])
